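1) Cells in 96-well plates. 2) Compound, 48 h, 5 concentrations. 3) Linear interpolation between surrounding doses. 4) Unreached endpoint = highest concentration. GI50 marks 50% less growth.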 Calls of active or inactive are those of the source. Cut-off read from the data, not from the text of the source: active = GI50 up to about 1.1 µM and inactive = higher.
How the values were obtained:
Assay in all cases: growth of human tumour cells (NCI), 48 h
HL-60 = system: HL-60
OVCAR-3 = system: OVCAR-3
OVCAR-8 = system: OVCAR-8
UACC-257 = system: UACC-257
HOP-92 = system: HOP-92
HCC 2998 = system: HCC 2998
SR = system: SR
A549 = system: A549
LOX IMVI = system: LOX IMVI
EKVX = system: EKVX
Malme-3M = system: Malme-3M
SF-539 = system: SF-539
A498 = system: A498
TK-10 = system: TK-10
NCI-H522 = system: NCI-H522
CCRF-CEM = system: CCRF-CEM
SF-268 = system: SF-268
SN12C = system: SN12C
SK-MEL-2 = system: SK-MEL-2
MDA-N = system: MDA-N

SMILES	GI50 (HL-60)	GI50 (OVCAR-3)	GI50 (OVCAR-8)	GI50 (UACC-257)	GI50 (HOP-92)	GI50 (HCC 2998)	GI50 (SR)	GI50 (A549)	GI50 (LOX IMVI)	GI50 (EKVX)	GI50 (Malme-3M)	GI50 (SF-539)	GI50 (A498)	GI50 (TK-10)	GI50 (NCI-H522)	GI50 (CCRF-CEM)	GI50 (SF-268)	GI50 (SN12C)	GI50 (SK-MEL-2)	GI50 (MDA-N)
CS(=O)(=O)CC1=Nc2nnc(CCCCCCCc3nnc4n3C(=O)C(CS(C)(=O)=O)=N4)n2C1=O	> 100 µM (inactive)	> 100 µM (inactive)	> 100 µM (inactive)	> 100 µM (inactive)	> 100 µM (inactive)	> 100 µM (inactive)	> 100 µM (inactive)	> 100 µM (inactive)	> 100 µM (inactive)	> 100 µM (inactive)	> 100 µM (inactive)	> 100 µM (inactive)	> 100 µM (inactive)	> 100 µM (inactive)	> 100 µM (inactive)	> 100 µM (inactive)	> 100 µM (inactive)	> 100 µM (inactive)		
COc1ccc2c(c1)C(=O)Cc1ccccc1CC2	> 100 µM (inactive)	> 100 µM (inactive)	> 100 µM (inactive)	> 100 µM (inactive)	> 100 µM (inactive)	> 100 µM (inactive)	> 100 µM (inactive)	> 100 µM (inactive)	> 100 µM (inactive)	> 100 µM (inactive)	> 100 µM (inactive)	> 100 µM (inactive)	> 100 µM (inactive)	> 100 µM (inactive)	> 100 µM (inactive)	> 100 µM (inactive)	> 100 µM (inactive)	> 100 µM (inactive)	81.5 µM (inactive)	
Cc1nc2ccccc2c(=O)n1NC(=O)c1ccccc1[N+](=O)[O-]	> 100 µM (inactive)	> 100 µM (inactive)	> 10 µM (inactive)	> 100 µM (inactive)	> 100 µM (inactive)	> 100 µM (inactive)	> 100 µM (inactive)	> 100 µM (inactive)	> 100 µM (inactive)	71.4 µM (inactive)	> 100 µM (inactive)	> 100 µM (inactive)	> 100 µM (inactive)	> 100 µM (inactive)	> 100 µM (inactive)	> 100 µM (inactive)	> 100 µM (inactive)	> 100 µM (inactive)		
Nc1ncnc2nc(N3CCN(CCO)CC3)[nH]c12	> 100 µM (inactive)	> 100 µM (inactive)	> 100 µM (inactive)	> 100 µM (inactive)		> 100 µM (inactive)		> 100 µM (inactive)	> 100 µM (inactive)	> 100 µM (inactive)	> 100 µM (inactive)	> 100 µM (inactive)	> 100 µM (inactive)	> 100 µM (inactive)	> 100 µM (inactive)	> 100 µM (inactive)	> 100 µM (inactive)	> 100 µM (inactive)	> 100 µM (inactive)	> 100 µM (inactive)
COc1cccc(N2C(=O)C3C4C=C5c6ccccc6N(c6ccccc6)C5(C3C2=O)[C@H]2C(=O)N(c3cccc(OC)c3)C(=O)[C@@H]42)c1 (some centres not stated)	> 100 µM (inactive)	> 100 µM (inactive)	> 100 µM (inactive)	> 100 µM (inactive)	> 100 µM (inactive)		> 100 µM (inactive)	> 100 µM (inactive)	> 100 µM (inactive)	> 100 µM (inactive)	> 100 µM (inactive)	> 100 µM (inactive)	> 100 µM (inactive)	> 100 µM (inactive)		> 100 µM (inactive)	> 100 µM (inactive)	> 100 µM (inactive)	> 100 µM (inactive)	
COc1cccc(/C=N/NC(N)=O)c1O		> 100 µM (inactive)	> 100 µM (inactive)	> 100 µM (inactive)	> 100 µM (inactive)	> 100 µM (inactive)	0.0603 µM (active)	> 100 µM (inactive)	> 100 µM (inactive)	> 100 µM (inactive)	> 100 µM (inactive)	> 100 µM (inactive)	> 100 µM (inactive)	> 100 µM (inactive)	> 100 µM (inactive)	> 100 µM (inactive)	> 100 µM (inactive)	> 100 µM (inactive)	> 100 µM (inactive)	
CN1C2(c3ccccc3)C(C(=O)c3ccccc3)=C(C(=O)c3ccccc3)C1(c1ccccc1)c1c(-c3ccccc3)sc(-c3ccccc3)c12	> 100 µM (inactive)	> 100 µM (inactive)	> 100 µM (inactive)	> 100 µM (inactive)	> 100 µM (inactive)	> 100 µM (inactive)	> 100 µM (inactive)	> 100 µM (inactive)	> 100 µM (inactive)	> 100 µM (inactive)	> 100 µM (inactive)	> 100 µM (inactive)	> 100 µM (inactive)	> 100 µM (inactive)	> 100 µM (inactive)	> 100 µM (inactive)	> 100 µM (inactive)	> 100 µM (inactive)		
C[N+](C)(C)CC(=O)N/N=C/c1oc(-c2c(O)ccc3ccccc23)c(-c2c(O)ccc3ccccc23)c1[N+](=O)[O-]	18.5 µM (inactive)	16.3 µM (inactive)	19.1 µM (inactive)	18.5 µM (inactive)	12.7 µM (inactive)	16 µM (inactive)	15.2 µM (inactive)	21.5 µM (inactive)	11.6 µM (inactive)	21.9 µM (inactive)	11.4 µM (inactive)	14.7 µM (inactive)	16.9 µM (inactive)	26.3 µM (inactive)	15.8 µM (inactive)	15.4 µM (inactive)	12.4 µM (inactive)	24.2 µM (inactive)	16.2 µM (inactive)	
Cc1ccc(C(=O)Nc2ccc(CP(=O)(O)O)cc2CP(=O)(O)O)cc1NC(=O)c1cccc(N)c1	> 100 µM (inactive)	> 100 µM (inactive)	> 100 µM (inactive)	> 100 µM (inactive)		> 100 µM (inactive)		> 100 µM (inactive)	> 100 µM (inactive)	> 100 µM (inactive)	> 100 µM (inactive)	> 100 µM (inactive)	> 100 µM (inactive)	> 100 µM (inactive)	> 100 µM (inactive)	> 100 µM (inactive)	> 100 µM (inactive)	> 100 µM (inactive)	> 100 µM (inactive)	> 100 µM (inactive)
C=C1C(=O)C23[C@H](O)C1CC[C@H]2[C@]12COC3(O)[C@@H](O)[C@@H]1C(C)(C)CC[C@@H]2O	4.27 µM (inactive)	14.8 µM (inactive)	13.4 µM (inactive)	15.5 µM (inactive)	3.95 µM (inactive)	15.8 µM (inactive)	1.34 µM (inactive)	23.3 µM (inactive)	14.2 µM (inactive)	19.7 µM (inactive)	2.49 µM (inactive)	6.98 µM (inactive)	9.1 µM (inactive)	17.2 µM (inactive)	0.552 µM (active)	3.03 µM (inactive)	4.76 µM (inactive)	20.1 µM (inactive)	2.28 µM (inactive)	
COC(=O)[C@@H]1C[C@@]2(C3C=CN(C(=O)C(F)(F)F)C=C3)c3ccccc3N(C(=O)C(F)(F)F)[C@H]2N1C(=O)OC	30.9 µM (inactive)	90.8 µM (inactive)	> 100 µM (inactive)	> 100 µM (inactive)	34.1 µM (inactive)	57.8 µM (inactive)	53.8 µM (inactive)	> 100 µM (inactive)	44.5 µM (inactive)	> 100 µM (inactive)	> 100 µM (inactive)	> 100 µM (inactive)	> 100 µM (inactive)	16.9 µM (inactive)	26.8 µM (inactive)	31.7 µM (inactive)	43 µM (inactive)	56.9 µM (inactive)		
O=C1CC2C=CC1C2CO (configuration not stated)	> 100 µM (inactive)	> 100 µM (inactive)	> 100 µM (inactive)	> 100 µM (inactive)	> 100 µM (inactive)	> 100 µM (inactive)	> 100 µM (inactive)	> 100 µM (inactive)	> 100 µM (inactive)	> 100 µM (inactive)	> 100 µM (inactive)	> 100 µM (inactive)	> 100 µM (inactive)	> 100 µM (inactive)	> 100 µM (inactive)	> 100 µM (inactive)	> 100 µM (inactive)	> 100 µM (inactive)		
CC1=C(C)CC2(SC1)C(=O)c1ccccc1C2=O	> 100 µM (inactive)		> 100 µM (inactive)	> 100 µM (inactive)	65.8 µM (inactive)	> 100 µM (inactive)	> 100 µM (inactive)	> 100 µM (inactive)	> 100 µM (inactive)		> 100 µM (inactive)	> 100 µM (inactive)	> 100 µM (inactive)	> 100 µM (inactive)	> 100 µM (inactive)	93.8 µM (inactive)	> 100 µM (inactive)	> 100 µM (inactive)	> 100 µM (inactive)	
COc1ccc(-c2ccccc2)c2[nH]c3c(c12)CCNC3=O	> 100 µM (inactive)	> 100 µM (inactive)	> 100 µM (inactive)	> 100 µM (inactive)	> 100 µM (inactive)	> 100 µM (inactive)	> 100 µM (inactive)	> 100 µM (inactive)	> 100 µM (inactive)	> 100 µM (inactive)	> 100 µM (inactive)	> 100 µM (inactive)	> 100 µM (inactive)	> 100 µM (inactive)	> 100 µM (inactive)	> 100 µM (inactive)	> 100 µM (inactive)	> 100 µM (inactive)		
O=C1OCC(c2ccc(Cl)cc2)=C1Cl	19.8 µM (inactive)	20.7 µM (inactive)	25.5 µM (inactive)	40 µM (inactive)	31.9 µM (inactive)	29 µM (inactive)	16.7 µM (inactive)	35 µM (inactive)	23.2 µM (inactive)	28.8 µM (inactive)	15.6 µM (inactive)	38 µM (inactive)	82 µM (inactive)	28.3 µM (inactive)	18.5 µM (inactive)	29.2 µM (inactive)	21.1 µM (inactive)	26.7 µM (inactive)	22.9 µM (inactive)	

Source: ChEMBL document CHEMBL1201862, “PubChem BioAssay data set” (2004)
